The text below walks through data of patent publication US8604055B2, “Substituted benzylamino quinolines as cholesterol ester-transfer protein inhibitors” (Dr. Reddy's Laboratories Ltd., priority 2004, dated 2013).

Each structure is given as a SMILES string.

The target of the test is T1, Recombinant CETP enzyme (Homo sapiens, UniProt P11597).
T1 construct: purchased Cardiovascular Targets
T1 sequence (P11597 18-493): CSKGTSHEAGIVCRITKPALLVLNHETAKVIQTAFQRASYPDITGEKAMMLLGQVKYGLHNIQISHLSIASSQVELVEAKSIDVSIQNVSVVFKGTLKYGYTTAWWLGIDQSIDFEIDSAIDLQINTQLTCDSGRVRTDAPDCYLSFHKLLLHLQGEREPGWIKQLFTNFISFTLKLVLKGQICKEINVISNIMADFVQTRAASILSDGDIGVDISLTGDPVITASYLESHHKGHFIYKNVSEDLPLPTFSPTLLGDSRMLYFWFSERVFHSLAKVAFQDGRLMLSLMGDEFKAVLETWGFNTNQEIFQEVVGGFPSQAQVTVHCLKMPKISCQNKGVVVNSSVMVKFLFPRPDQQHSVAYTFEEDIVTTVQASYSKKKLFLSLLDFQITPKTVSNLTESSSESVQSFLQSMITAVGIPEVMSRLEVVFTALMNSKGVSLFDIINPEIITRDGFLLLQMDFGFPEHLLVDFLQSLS
The experiment in a line: In vitro fluorescence-based CETP inhibition assay (BODIPY-CE transfer from donor to acceptor microemulsions). The class given is biochemical. To be noted: recombinant CETP 0.14 ng/μl; transfer of fluorescent cholesteryl ester monitored over 2 hours; vs DMSO controls. The method, then:
An in vitro fluorescence-based assay to identify CETP inhibitors was developed from modifications of the protocols outlined in Bisgaier et al., J Lipid Res., 34(9): 1625-34 (1993) and Epps et al., Chem Phys Lipids., 77(1): 51-63 (1995). Acceptor and donor lipid microemulsions were prepared according to Bisgaier et al., 1993, except that the buffer was prepared with 0.67 ug/mL human HDL (Calbiochem). Donor microemulsions contained the fluorescent cholesteryl ester analog BODIPY-CE (Molecular Probes), characterized by excitation and emission maxima at 503 nm and 518 nm, respectively. The CETP-mediated transfer of fluorescent cholesteryl ester to acceptor particles was monitored over a 2-hour time period using the FAM filter set (excitation 492 nm, emission 516 nm) in an MX3000P fluorescent plate reader (Stratagene). Recombinant CETP enzyme (Cardiovascular Targets) was used at 0.14 ng/μl, final concentration, to achieve lipid transfer. CETP inhibition by compounds was compared to DMSO controlsand graphed as a percentage of the control CETP activity over 2 hours. The IC50 curves for CETP inhibition were generated from the activity profiles. Active compounds were also tested for CETP inhibition as above, but in the presence of 3% human serum albumin, fraction V (Calbiochem).
As for `CCCCN(CC)c1ncccc1CN(Cc1cc(C(F)(F)F)cc(C(F)(F)F)c1)c1nnn(C)n1` [Example 73], the IC50 is at most 5000 nM. For `Cc1cccc2cc(CN(Cc3cc(C(F)(F)F)cc(C(F)(F)F)c3)c3nnn(CCO)n3)c(N(CC3CC3)CC3CC3)nc12` [Example 93, 2-{5-[[2-(bis-cyclopropylmethyl-amino)-8-methyl-quinoline-3-ylmethyl]-(3,5-bistrifluoromethyl-benzyl)-amino]-tetrazol-2-yl}-ethanol] the value was at most 1000 nM; for `Cc1cccc2cc(CN(Cc3cc(C(F)(F)F)cc(C(F)(F)F)c3)c3ccc(Br)cn3)c(N(CC3CC3)CC3CC3)nc12` [Example 111, (3-{[(3,5-bis-trifluoromethyl-benzyl)-(5-bromo-pyridin-2-yl)-amino]-methyl}-8-methyl-quinolin-2-yl)-bis-cyclopropylmethyl-amine], at most 1000 nM.

For `CCCN(CC1CCCC1)c1nc2ccccc2cc1CN(Cc1cc(C(F)(F)F)cc(C(F)(F)F)c1)C(=O)OCC` [Example 43, (3,5-bis-trifluoromethyl-benzyl)-[2-(cyclopentylmethyl-propyl-amino)-quinolin-3-ylmethyl]-carbamic acid ethyl ester], the IC50 is at most 5000 nM. The result for `CCN(CC1CCCC1)c1nc2ccccc2cc1CN(Cc1cc(C(F)(F)F)cc(C(F)(F)F)c1)c1ccccn1` [Example 69, (3-{[(3,5-bis-trifluoromethyl-benzyl)-pyridin-2-yl-amino]-methyl)-quinolin-2-yl)-cyclopentylmethyl-ethyl-amine] reads at most 5000 nM. The result for `CCN(CC1CCCC1)c1nc2onc(C)c2cc1CN(Cc1cc(C(F)(F)F)cc(C(F)(F)F)c1)C(=O)OC` [Example 32, (3,5-bis-trifluoromethyl-benzyl)-[6-(cyclopentylmethyl-ethyl-amino)-3-methyl-isoxazolo[5,4-b]pyridine-5-ylmethyl}-carbamic acid methyl ester] reads at most 1000 nM. The result for `CCN(CC1CCCC1)c1nc2c(cc1CN(Cc1cc(C(F)(F)F)cc(C(F)(F)F)c1)C(=O)OC)CCCC2` [Example 74] reads at most 1000 nM; that for `CCN(CC1CCC1)c1nc2c(cc1CN(Cc1cc(C(F)(F)F)cc(C(F)(F)F)c1)c1cc(C)on1)c(C)nn2C` [Example 10, (5-{[(3,5-bis-trifluoromethyl-benzyl)-(5-methyl-isoxazol-3-yl)-amino]-methyl}-1,3-dimethyl-1H-pyrazolo[3,4-b]pyridin-6-yl)-cyclobutylmethyl-ethyl-amine], at most 1000 nM.

In the case of `CCN(CC1CCCC1)c1nc2ccccc2cc1CN(Cc1cc(C(F)(F)F)cc(C(F)(F)F)c1)c1nc(C)co1` [Example 67], the IC50 was at most 1000 nM.

Regarding `CCOC(=O)N(Cc1cc(C(F)(F)F)cc(C(F)(F)F)c1)Cc1cc2ccccc2nc1N(CC)CC1CCCCC1` [Example 42, (3,5-bis-trifluoromethyl-benzyl)-[2-(cyclohexylmethyl-ethyl-amino)-quinolin-3-ylmethyl]-carbamic acid ethyl ester], the IC50 is at most 5000 nM. For `CCN(CC1CCCC1)c1nc2c(cc1CN(Cc1cc(C(F)(F)F)cc(C(F)(F)F)c1)c1nnn(C)n1)c(C)nn2C` [Example 24, (5-{[(3,5-bis-trifluoromethyl-benzyl)-(2-methyl-2H-tetrazol-5-yl)-amino]-methyl}-1,3-dimethyl-1H-pyrazolo[3,4-b]pyridin-6-yl)-cyclopentylmethyl-ethyl-amine] the value was at most 1000 nM; for `CCN(CC1CCCC1)c1nc2ccccc2cc1CN(Cc1cc(C(F)(F)F)cc(C(F)(F)F)c1)C1=NCCO1` [Example 68, (3-{[(3,5-bis-trifluoromethyl-benzyl)-(4,5-dihydro-oxazol-2-yl)-amino]-methyl}-quinolin-2-yl)-cyclopentylmethyl-ethyl-amine], at most 5000 nM; for `CCN(CC1CCCC1)c1nc2c(cc1CN(Cc1cc(Cl)cc(Cl)c1)c1nnn(C)n1)c(C)nn2C` [Example 19, cyclopentylmethyl-(1,3-dimethyl-5-{[(2-methyl-2H-tetrazol-5-yl)-(3,5-dichlorobenzyl)-amino]-methyl}-1H-pyrazolo[3,4-b]pyridin-6-yl)-ethyl-amine], at most 1000 nM.

`Cc1cccc2cc(CN(Cc3cc(C(F)(F)F)cc(C(F)(F)F)c3)c3nnn(C(C)C)n3)c(N(CC3CC3)CC3CC3)nc12` [Example 85]: the IC50 is at most 1000 nM. The result for `CCN(CC1CCCC1)c1nc2ccccc2cc1CN(Cc1cc(C(F)(F)F)cc(C(F)(F)F)c1)Cc1nnnn1C` [Example 71, (3-{[(3,5-bis-trifluoromethyl-benzyl)-(1-methyl-1H-tetrazol-5-ylmethyl)-amino]-methyl}-quinolin-2-yl)-cyclopentylmethyl-ethyl-amine] reads at most 5000 nM; that for `Cc1nn(C)c2nc(N(C)CC3CCC3)c(CN(Cc3cc(C(F)(F)F)cc(C(F)(F)F)c3)c3nnn(C)n3)cc12` [Example 4, (5-{[(3,5-bis-trifluoromethyl-benzyl)-(2-methyl-2H-tetrazole-5-yl)-amino]-methyl}-1,3-dimethyl-1H-pyrazolo[3,4-b]pyridin-6-yl)-cyclobutylmethyl-methyl-amine], at most 1000 nM; that for `CCOC(=O)c1c(CN(Cc2cc(C(F)(F)F)cc(C(F)(F)F)c2)c2nnn(C)n2)c2ccccc2n1C(=O)C1CCCC1` [Example 127, 3-{[(3,5-bis-trifluoromethyl-benzyl)-(2-methyl-2H-tetrazol-5-yl)-amino]-methyl}-1-cyclopentanecarbonyl-1H-indole-2-carboxylic acid ethyl ester], at most 1000 nM. For `CCN(CC1CC1)c1nc2c(cc1CN(Cc1cc(C(F)(F)F)cc(C(F)(F)F)c1)c1nnn(C)n1)c(C)nn2C` [Example 3, (5-{[(3,5-bis-trifluoromethyl-benzyl)-(2-methyl-2H-tetrazole-5-yl)-amino]-methyl}-1,3-dimethyl-1H-pyrazolo[3,4-b]pyridin-6-yl)-cyclopropylmethyl-ethyl-amine] the value was at most 1000 nM. For `Cn1nnc(N(Cc2cc(C(F)(F)F)cc(C(F)(F)F)c2)Cc2cc3cccc(Cl)c3nc2N(CC2CC2)CC2CC2)n1` [Example 90] the value was at most 1000 nM. As for `CCN(CC1CCCC1)c1nc2c(cc1CN(Cc1cc(F)cc(F)c1)c1nnn(C)n1)c(C)nn2C` [Example 18, cyclopentylmethyl-ethyl-(5-{[(3,5-difluoro-benzyl)-(2-methyl-2H-tetrazol-5-yl)-amino]-methyl}-1,3-dimethyl-1H-pyrazolo[3,4-b]pyridine-6-yl)-amine], the IC50 is at most 1000 nM. For `CCN(CC1CCC1)c1nc2c(cnn2CC2CC2)cc1CN(Cc1cc(C(F)(F)F)cc(C(F)(F)F)c1)c1nnn(C)n1` [Example 101, (5-{[(3,5-bis-trifluoromethyl-benzyl)-(2-methyl-2H-tetrazol-5-yl)-amino]methyl}-1-cyclopropylmethyl-1H-pyrazolo[3,4-b]pyridin-6-yl)-cyclobutylmethyl-ethyl-amine] the value was at most 1000 nM. The result for `CCN(CC1CCCC1)c1nc2ccccc2cc1CN(Cc1cc(C(F)(F)F)cc(C(F)(F)F)c1)Cc1nnn(C)n1` [Example 70, (3-{[(3,5-bis-trifluoromethyl-benzyl)-(2-methyl-2H-tetrazol-5-ylmethyl)-amino]-methyl}-quinolin-2-yl)-cyclopentylmethyl-ethyl-amine] reads at most 5000 nM; that for `Cc1nn(C)c2nc(N(CC3CC3)C(=O)C3CC3)c(CN(Cc3cc(C(F)(F)F)cc(C(F)(F)F)c3)c3nnn(C)n3)cc12` [Example 27, cyclopropanecarboxylic acid (5-{[(3,5-bis-trifluoromethyl-benzyl)-(2-methyl-2H-tetrazol-5-yl)-amino]-methyl}-1,3-dimethyl-1H-pyrazolo[3,4-b]pyridin-6-yl)-cyclopropylmethyl-amide], at most 1000 nM. With `CCN(CC1CCCC1)c1nc2c(cc1CN(Cc1cc(C(F)(F)F)cc(C(F)(F)F)c1)c1nnn(C)n1)CCCC2` [Example 77], the IC50 was at most 1000 nM. The result for `CCN(CC1CCCC1)c1nc2ccccc2cc1CN(Cc1cc(C(F)(F)F)cc(C(F)(F)F)c1)c1ncccn1` [Example 66, (3-{[(3,5-bis-trifluoromethyl-benzyl)-pyrimidin-2-yl-amino]-methyl}-quinolin-2-yl)-cyclopentylmethyl-ethyl-amine] reads at most 5000 nM; that for `CCN(CC1CCC1)c1nc2c(cnn2C)cc1CN(Cc1cc(C(F)(F)F)cc(C(F)(F)F)c1)c1nnn(C)n1` [Example 12, (5-{[(3,5-bis-trifluoromethyl-benzyl)-(2-methyl-2H-tetrazol-5-yl)-amino]-methyl}-1-methyl-1H-pyrazolo[3,4-b]pyridin-6-yl)-cyclobutylmethyl-ethyl-amine], at most 1000 nM.

One may read the IC50 as the concentration that inhibits the measured activity by half.
